Measured values as given in ChEMBL document CHEMBL1155023, “C-geranylated chalcones from the stems of Angelica keiskei with superoxide-scavenging activity” (J Nat Prod, 2008).

Test: Superoxide-scavenging activity assessed as inhibition of formation of WST1 formazan

Structure (SMILES)	IC50 [nM]
CC(C)=CCC/C(C)=C/CC/C(C)=C/CO [FARNESOL]	> 40000
C=C(C)C(O)CC/C(C)=C/Cc1c(O)ccc(C(=O)/C=C/c2ccc(O)cc2)c1O (centres undefined) [XANTHOANGELOL B]	920
O=C1O[C@H]([C@@H](O)CO)C(O)=C1O [ASCORBIC ACID]	> 40000
Oc1ccc(/C=C/c2cc(O)cc(O)c2)cc1 [RESVERATROL]	5300
CC(C)(O)/C=C/CC(C)(O)[C@H]1Oc2ccc(C(=O)/C=C/c3ccc(O)cc3)c(O)c2[C@@H]1O (some centres undefined) [XANTHOKEISMINS B]	690
CC(C)=CCC/C(C)=C/Cc1c(O)ccc(C(=O)/C=C/c2ccc(O)cc2)c1O [XANTHOANGELOL]	> 40000
O=C(/C=C/c1ccc(O)cc1)c1ccc(O)cc1O [ISOLIQUIRITIGENIN]	15000
C=C(C)C(O)CCC(C)(O)[C@H]1Oc2ccc(C(=O)/C=C/c3ccc(O)cc3)c(O)c2[C@@H]1O (relative stereo) [XANTHOKEISMINS C]	1100
C/C(=C\Cc1c(O)ccc(C(=O)/C=C/c2ccc(O)cc2)c1O)C/C=C/C(C)(C)O [XANTHOKEISMINS A]	510
